From ChEMBL document CHEMBL1157188, “Structure-activity relationship of truncated analogs of caprazamycins as potential anti-tuberculosis agents” (2008)
Values after ≈ are worked out from the molar mass of the structure shown.

Columns and labels:
[1] = test system: Mycolicibacterium smegmatis; assay: Antimicrobial activity against Mycobacterium smegmatis; type: functional
[2] = test system: Mycobacterium tuberculosis; assay: Antimicrobial activity against Mycobacterium tuberculosis H37Rv by almar blue assay; type: functional

Row | Structure (SMILES) | MIC [1] [µg/mL] | MIC50 [2] [µg/mL]
1 | CCCCCCCCCCCCCCCC(=O)O[C@H]1CN(C)[C@@H]([C@H](O[C@@H]2O[C@H](CN)[C@@H](O)[C@H]2O)[C@H]2O[C@@H](n3ccc(=O)[nH]c3=O)[C@H](O)[C@@H]2O)C(=O)N(C)[C@@H]1C(=O)O [PALMITOYL CAPRAZOL] | 6.25 (≈ 7.68 µM) | 2.5 (≈ 3.07 µM)
2 | CCCCCCCCCCCCCCCC(=O)O[C@H]1CN(C)[C@@H]([C@H](O)[C@H]2O[C@@H](n3ccc(=O)[nH]c3=O)[C@H](O)[C@@H]2O)C(=O)N(C)[C@@H]1C(=O)O |  | > 100
3 | CO[C@@H]1[C@@H](OC)[C@H](C)O[C@@H](OC(=O)C[C@@H](C)CC(=O)O[C@@H](CCCCCCCCCC(C)C)CC(=O)O[C@H]2CN(C)[C@@H]([C@H](O[C@@H]3O[C@H](CN)[C@@H](O)[C@H]3O)[C@H]3O[C@@H](n4ccc(=O)[nH]c4=O)[C@H](O)[C@@H]3O)C(=O)N(C)[C@@H]2C(=O)O)[C@@H]1OC | 1.56 (≈ 1.38 µM) | 
4 | CCCCCCCCCCCCCCCC(=O)O[C@H]1CN(C)[C@@H]([C@@H](C)O[C@@H]2O[C@H](CN)[C@@H](O)[C@H]2O)C(=O)N(C)[C@@H]1C(=O)O |  | > 100
5 | CN1C[C@H](O)[C@@H](C(=O)O)N(C)C(=O)[C@@H]1[C@H](O[C@@H]1O[C@H](CN)[C@@H](O)[C@H]1O)[C@H]1O[C@@H](n2ccc(=O)[nH]c2=O)[C@H](O)[C@@H]1O [CAPRAZOL] |  | > 100
6 | CCCCCCCCCCCCCCCC(=O)OC[C@H](NC(=O)[C@@H](N)[C@H](O[C@@H]1O[C@H](CN)[C@@H](O)[C@H]1O)[C@H]1O[C@@H](n2ccc(=O)[nH]c2=O)[C@H](O)[C@@H]1O)C(=O)O |  | 6.25 (≈ 8.08 µM)
